Experiments:
Assay in all cases: ProQinase radiometric kinase panel
Conditions in all cases: mean of 2 exp.
ROCK1 = ROCK1 (Homo sapiens, UniProt Q13464)
ZAP70 = ZAP70 (Homo sapiens, UniProt P43403)
IKK-epsilon = IKK-epsilon (Homo sapiens, UniProt Q14164)
ACV-R1 = ACV-R1 (Homo sapiens, UniProt Q04771)
Chain of ACV-R1 (Q04771 21-509): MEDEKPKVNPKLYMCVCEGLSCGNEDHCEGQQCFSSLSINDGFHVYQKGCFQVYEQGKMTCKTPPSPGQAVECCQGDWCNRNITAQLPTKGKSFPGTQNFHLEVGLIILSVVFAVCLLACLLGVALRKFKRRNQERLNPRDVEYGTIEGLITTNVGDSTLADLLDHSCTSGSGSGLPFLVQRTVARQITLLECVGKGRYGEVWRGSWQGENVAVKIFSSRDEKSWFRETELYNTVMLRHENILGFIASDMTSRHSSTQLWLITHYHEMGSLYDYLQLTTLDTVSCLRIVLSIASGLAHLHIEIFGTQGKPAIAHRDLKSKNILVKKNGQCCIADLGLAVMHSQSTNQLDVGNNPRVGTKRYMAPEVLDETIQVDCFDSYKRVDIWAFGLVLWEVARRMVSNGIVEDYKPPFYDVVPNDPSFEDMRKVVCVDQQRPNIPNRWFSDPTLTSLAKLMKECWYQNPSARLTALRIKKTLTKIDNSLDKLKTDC

Chain of ZAP70 (P43403 whole entry): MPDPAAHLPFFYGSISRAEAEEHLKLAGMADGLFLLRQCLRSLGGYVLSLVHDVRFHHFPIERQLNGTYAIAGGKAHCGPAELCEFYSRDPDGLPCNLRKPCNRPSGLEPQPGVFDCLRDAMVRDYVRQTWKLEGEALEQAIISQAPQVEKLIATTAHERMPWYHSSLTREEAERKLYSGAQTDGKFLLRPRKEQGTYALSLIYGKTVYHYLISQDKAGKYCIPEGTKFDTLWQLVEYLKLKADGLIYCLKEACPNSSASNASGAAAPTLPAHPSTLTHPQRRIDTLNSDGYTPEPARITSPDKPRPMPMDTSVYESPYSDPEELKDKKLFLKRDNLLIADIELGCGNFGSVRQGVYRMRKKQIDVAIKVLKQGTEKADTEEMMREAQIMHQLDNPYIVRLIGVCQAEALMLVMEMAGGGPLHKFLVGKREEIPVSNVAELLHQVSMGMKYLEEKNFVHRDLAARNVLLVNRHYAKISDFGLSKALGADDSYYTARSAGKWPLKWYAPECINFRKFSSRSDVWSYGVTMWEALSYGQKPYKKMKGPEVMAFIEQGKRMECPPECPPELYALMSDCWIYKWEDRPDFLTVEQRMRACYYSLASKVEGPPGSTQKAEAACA
Chain of IKK-epsilon (Q14164 whole entry): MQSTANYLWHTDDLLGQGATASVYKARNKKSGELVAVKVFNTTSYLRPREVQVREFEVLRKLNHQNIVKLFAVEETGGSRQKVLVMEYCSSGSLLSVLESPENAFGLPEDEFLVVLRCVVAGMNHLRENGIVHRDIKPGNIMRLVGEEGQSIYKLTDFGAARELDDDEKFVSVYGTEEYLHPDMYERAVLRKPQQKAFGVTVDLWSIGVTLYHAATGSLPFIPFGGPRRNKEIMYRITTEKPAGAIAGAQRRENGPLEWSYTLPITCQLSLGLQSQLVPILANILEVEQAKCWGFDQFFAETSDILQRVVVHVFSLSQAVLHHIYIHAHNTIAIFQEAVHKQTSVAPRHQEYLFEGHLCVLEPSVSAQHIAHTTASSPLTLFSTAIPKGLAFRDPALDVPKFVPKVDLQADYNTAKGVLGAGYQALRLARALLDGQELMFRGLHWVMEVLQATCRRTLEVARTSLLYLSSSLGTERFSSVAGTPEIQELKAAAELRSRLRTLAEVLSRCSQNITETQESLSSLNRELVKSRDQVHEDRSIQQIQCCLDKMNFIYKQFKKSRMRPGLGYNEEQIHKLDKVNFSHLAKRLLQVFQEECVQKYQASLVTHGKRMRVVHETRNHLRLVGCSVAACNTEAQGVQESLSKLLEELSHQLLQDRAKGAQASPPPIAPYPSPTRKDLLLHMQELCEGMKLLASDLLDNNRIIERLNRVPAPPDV
Chain of ROCK1 (Q13464 whole entry): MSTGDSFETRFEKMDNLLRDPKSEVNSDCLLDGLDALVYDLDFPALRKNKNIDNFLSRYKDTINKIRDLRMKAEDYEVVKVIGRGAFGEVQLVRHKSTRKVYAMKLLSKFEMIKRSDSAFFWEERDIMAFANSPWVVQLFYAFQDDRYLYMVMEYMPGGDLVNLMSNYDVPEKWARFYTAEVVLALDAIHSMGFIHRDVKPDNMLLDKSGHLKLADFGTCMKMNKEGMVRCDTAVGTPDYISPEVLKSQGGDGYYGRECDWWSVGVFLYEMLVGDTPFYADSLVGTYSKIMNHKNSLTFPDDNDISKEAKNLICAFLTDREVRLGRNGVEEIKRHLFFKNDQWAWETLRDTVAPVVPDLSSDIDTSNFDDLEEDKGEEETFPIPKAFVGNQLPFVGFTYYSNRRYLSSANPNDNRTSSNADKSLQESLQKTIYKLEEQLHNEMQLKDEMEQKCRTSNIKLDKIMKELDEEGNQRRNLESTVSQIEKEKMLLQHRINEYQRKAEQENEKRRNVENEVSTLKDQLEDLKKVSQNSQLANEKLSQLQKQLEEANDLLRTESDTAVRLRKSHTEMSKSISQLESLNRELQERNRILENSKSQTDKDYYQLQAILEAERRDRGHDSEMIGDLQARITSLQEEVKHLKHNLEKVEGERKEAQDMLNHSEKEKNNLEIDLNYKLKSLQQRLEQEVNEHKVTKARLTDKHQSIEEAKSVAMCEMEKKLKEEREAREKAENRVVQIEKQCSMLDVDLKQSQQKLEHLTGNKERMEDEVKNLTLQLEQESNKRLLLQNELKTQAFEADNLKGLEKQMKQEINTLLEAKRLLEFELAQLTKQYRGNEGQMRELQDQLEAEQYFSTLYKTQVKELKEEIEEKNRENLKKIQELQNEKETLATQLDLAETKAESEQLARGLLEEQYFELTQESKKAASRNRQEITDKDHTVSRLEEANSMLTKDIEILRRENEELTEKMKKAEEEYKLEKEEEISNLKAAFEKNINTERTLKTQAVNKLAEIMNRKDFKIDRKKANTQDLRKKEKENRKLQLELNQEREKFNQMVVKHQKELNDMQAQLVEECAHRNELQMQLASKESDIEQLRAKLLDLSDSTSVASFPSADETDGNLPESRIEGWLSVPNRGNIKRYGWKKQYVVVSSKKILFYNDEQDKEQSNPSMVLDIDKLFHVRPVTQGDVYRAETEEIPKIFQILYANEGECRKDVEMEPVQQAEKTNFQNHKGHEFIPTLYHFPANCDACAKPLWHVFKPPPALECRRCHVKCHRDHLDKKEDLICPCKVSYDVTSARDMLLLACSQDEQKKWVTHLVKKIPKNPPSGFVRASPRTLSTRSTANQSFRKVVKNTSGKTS

residual activity at 1 µM, Mean (ROCK1): 73 % of control
residual activity at 1 µM, Mean (ZAP70): 97 % of control
residual activity at 1 µM, Mean (IKK-epsilon): 95 % of control
residual activity at 1 µM, Mean (ACV-R1): 93 % of control
Compound: COc1ccc2c3ccnc(Cl)c3n(CC#N)c2c1 [AnnH75]

From article PMC4508061, “Selectivity Profiling and Biological Activity of Novel β-Carbolines as Potent and Selective DYRK1 Kinase Inhibitors” (PLoS ONE, 2015)
